Experiments:
[1] = test system: E13.5 cortical embryonic mouse CNS stem cells; test: CNS stem cell plating efficiency / colony formation / survival; format: cell-based
Method: (§1) Cell culture: E13.5 cortical embryonic mouse and adult rat subventricular zone CNS stem cells were grown as previously described (Johe et al., Genes Dev 10:3129-40, 1996; Rajan et al., J Neurosci 18:3620-9, 1998). Cells were expanded in serum-free DMEM/F12 medium with N2 supplement with FGF2 (20 ng/ml) for 5 days and were re-plated at 1000-10,000 cells per cm^2. FGF2 was included throughout our experiments, unless otherwise stated.
To explore these paradoxical observations, CNS stem cell cultures from mid-gestation (embryonic day 13.5) mouse dorsal telencephalon were treated with soluble Notch ligands. […] Following initial passaging, the cells were plated at a density of 1000 cells/cm^2, cultured for 5 days in the presence of FGF2, and colony numbers, sizes, and BrdU incorporation (after a 4 hour BrdU pulse) were enumerated. Notch activation by Jagged-1 or Delta-4 (200 ng/ml) increased the number of colonies generated in vitro by over 3-fold (FIG. 1a). […] The effects of Notch activation were most dramatic when treatments were initiated at the start of the culture.
Insulin in the medium is also thought to promote cell survival. […] Seeding cells in the absence of insulin caused the plating efficiency measured at five days to drop to 29.9%±37.9 (FIG. 1e). Delta-4 was able to compensate for the lack of insulin in the medium, and restored plating efficiency (125%±19.4). Because Notch activation improved survival, activation of Akt, a ser/threonine kinase known to be involved in cell survival, was assayed. Notch activation rapidly (5 minutes) promoted the phosphorylation of Akt on Ser473 and […] in both the presence and absence of insulin (FIG. 1f).

STAT3 = STAT3 phosphorylation (Ser727, Tyr705) immunoblot in CNS stem cells; format: cell-based, mouse
Text: Ligands that activate JAK/STAT signaling promote astrocytic differentiation of CNS stem cells (Johe et al., Genes Dev 10:3129-40, 1996; Raj an et al., J Neurosci 18:3620-9, 1998; Bonni et al., Science 278:477-83, 1997; Song et al., Nat Neurosci 7:229-35, 2004; He et al., Nat Neurosci 8:616-625, 2005). When applying CNTF to CNS stem cells it was noted that low concentrations of CNTF stimulated survival but not expression of astrocyte specific genes. This is consistent with previous observations of Akt phosphorylation downstream of gp130 activation (Taga et al., Annu Rev Immunol 15:797-819, 1997). […] At high concentrations (20 ng/ml) the phosphorylation of Tyr705 can be blocked by an inhibitor of JAK while allowing a CNTF-induced increase in Ser727 phosphorylation (FIG. 2B) (Thompson et al., Bioorg Med Chem Lett 12:1219-23, 2002).
CNTF was used as a positive control; CNTF, induced the phosphorylation on both sites. With both CNTF and Notch activation, phosphorylation peaked at around 30 min. STAT3 phosphorylation on Ser727 following Notch activation was sensitive to the γ-secretase inhibitor DAPT (FIG. 2e). […] In contrast to CNTF, no Tyr705 phosphorylation was detected at any of the doses of Notch receptor ligands.
It was determined that insulin also maintains phosphorylation of serine 727 in STAT3 in foetal neural stem cell cultures.

Hes3 = Hes3 expression (RT-PCR, immunohistochemistry) in CNS stem cells; format: cell-based, mouse; conditions: for Hes3 mRNA levels: CNTF 20 ng/ml
Method: RT-PCR: For reverse-transcriptase PCR analysis, RNA was extracted from cell cultures or brain homogenates with Trizol (Invitrogen, 15596-026), and PCR reactions were performed with the ProSTAR First-Strand RT-PCR Kit (Stratagene, 200420). Primers were used for the following genes: Hes1, Hes2, Hes3, Hes5, Hes6, Hey2; Hes7
Notch signaling regulates transcription of the Hes/Hey gene family, a group of genes implicated in the control of differentiation (Iso et al., J Cell Physiol 194:237-55, 2003). RT-PCR was used to assess mRNA regulation of these genes one hour after Notch activation in CNS stem cells. […] The ability of high concentrations of CNTF to inhibit Hes3 induction following Notch activation was dependent on JAK activity (FIG. 4e). In contrast, in the absence of added Notch ligand, Hes3 mRNA levels were elevated by high CNTF and the JAK inhibitor (FIG. 4e).
Conversely, treatment with ciliary neurotrophic factor (CNTF), a cytokine that opposes the signal transduction pathway downstream of Notch activation opposed the ability of D114 to induce Hes3 transcription. Immunohistochemical experiments were performed that documented D114, CNTF regulate Hes3 expression. Thus, at the protein expression level, D114 maintains and CNTF inhibits Hes3 expression.

adult rat SVZ stem cells = test: Adult SVZ stem cell plating efficiency and colony size; format: cell-based
Method: as §1
Very little protein or mRNA were detected outside the SVZ (FIG. 4g). Adult CNS stem cells can be cultured as a monolayer in vitro (FIG. 4h) and they show similar responses to extracellular signals that regulate stem cell differentiation upon withdrawal of the mitogen that sustains the undifferentiated state (Johe et al., Genes Dev 10:3129-40, 1996). To ask if Notch activation promotes survival in rat adult SVZ cultures, isolated cells were grown in the presence of FGF2 with and without Delta-4 for one week. […] When FGF2 was withdrawn for a week, cells at clonal density generated all three CNS lineages (FIG. 8C, Table 4).

mES (D3) cells = test: mES cell plating efficiency, Oct4 and STAT3 phosphorylation in the presence of LIF; format: cell-based, mouse; conditions: for Oct4 expression: five day treatments in the presence of LIF; for cell survival in a plating efficiency assay: in the presence of LIF
Text: FIGS. 10a-10c are a set of images showing JAK inhibition reduces the phosphorylation of STAT3 on Ser727 in mES cell cultures. […] Very low levels of phosphorylated p38 were detectable under all conditions. […] Self-renewal of mES cells correlated with Ser727 phosphorylation.
mES (D3) cells were obtained from ATCC and were maintained in feeder-free cultures on gelatin-coated plates supplemented with 1400 units/ml LIF.
There is great interest in conditions that support the growth of mouse and human ES cells. In contrast to CNS SC (FIG. 2, FIG. 3) and hES SC (se below), the growth of undifferentiated mouse ES cells depends on the stimulation of the JAK/STAT pathway and STAT3 phosphorylation on Tyr705 has been specifically shown to be essential for self-renewal of mouse ES cells (Niwa et al., Genes Dev 12:2048-60, 1998; Matsuda et al., Embo J 18:4261-9, 1999). Ligands that stimulate the JAK/STAT pathway cause human ES cells to differentiate (Daheron et al., Stem Cells 22:770-8, 2004; Humphrey et al., Stem Cells 22:522-30, 2004). It was determined if the Notch/sSTAT survival pathway is present in mouse or human ES cells.

[2] = in the presence of FGF2 for one week

Compound | CNS stem cell survival / plating efficiency ([1]; 5 days, versus FGF2 control, CNTF low 0.01, 0.1 ng/ml or high 20 ng/ml with JAK inhibitor) | effect on CNTF-induced STAT3 phosphorylation (STAT3; CNTF 20 ng/ml) | Hes3 mRNA levels (Hes3) | enhancement of plating efficiency (adult rat SVZ stem cells) | STAT3 phosphorylation on Ser727 and Tyr705 (mES (D3) cells; 90 min) | Oct4 expression (mES (D3) cells) | cell survival in a plating efficiency assay (mES (D3) cells) | plating efficiency ([1]; absence of insulin in the medium, five days) | concentration at which peak STAT3 phosphorylation was achieved (STAT3; dose response, Ser727) | Hes3 expression at the protein expression level (Hes3; immunohistochemical) | colony size (adult rat SVZ stem cells; [2]) | plating efficiency (adult rat SVZ stem cells; [2])
CC(C)(C)c1nc2c3ccc(F)cc3c3c(=O)[nH]ccc3c2[nH]1 [JAK Inhibitor, 2-(1,1-Dimethylethyl)-9-fluoro-3,6-dihydro-7H-benz[h]-imidaz[4,5-f]isoquinolin-7-one] | increased survival | selectively blocked Tyr705 but not Ser727 phosphorylation | no effect on Hes3 mRNA | approx. 40% | significant down-regulation | down-regulated Oct4 | reduced it | – | – | – | – | –
Delta-4: soluble Notch ligand Delta-4 (1389-D4) from R&D | – | – | increases its transcription | – | – | did not affect Oct4 expression | did not significantly alter cell survival | 125%±19.4 | ~1 ng/mL | maintains | 278.5%±52.5 | 1050%±273.8
